Assay results from patent US10077436B2, “Beta-glucosidase enzymes for increased biomass saccharification” (Edeniq, Inc., priority 2013, dated 2018).

Biological target: T1, Aspergillus niger beta-glucosidase (CAB75696.1, SEQ ID NO:2) improved variant yEdQ885-BG (Aspergillus niger, UniProt Q9P8F4, Y363C/Y375F/Y610F)
T1 construct: strain yEdQ885, BG acid/base mutant #8
T1 sequence (Q9P8F4 20-860 Y363C/Y375F/Y610F): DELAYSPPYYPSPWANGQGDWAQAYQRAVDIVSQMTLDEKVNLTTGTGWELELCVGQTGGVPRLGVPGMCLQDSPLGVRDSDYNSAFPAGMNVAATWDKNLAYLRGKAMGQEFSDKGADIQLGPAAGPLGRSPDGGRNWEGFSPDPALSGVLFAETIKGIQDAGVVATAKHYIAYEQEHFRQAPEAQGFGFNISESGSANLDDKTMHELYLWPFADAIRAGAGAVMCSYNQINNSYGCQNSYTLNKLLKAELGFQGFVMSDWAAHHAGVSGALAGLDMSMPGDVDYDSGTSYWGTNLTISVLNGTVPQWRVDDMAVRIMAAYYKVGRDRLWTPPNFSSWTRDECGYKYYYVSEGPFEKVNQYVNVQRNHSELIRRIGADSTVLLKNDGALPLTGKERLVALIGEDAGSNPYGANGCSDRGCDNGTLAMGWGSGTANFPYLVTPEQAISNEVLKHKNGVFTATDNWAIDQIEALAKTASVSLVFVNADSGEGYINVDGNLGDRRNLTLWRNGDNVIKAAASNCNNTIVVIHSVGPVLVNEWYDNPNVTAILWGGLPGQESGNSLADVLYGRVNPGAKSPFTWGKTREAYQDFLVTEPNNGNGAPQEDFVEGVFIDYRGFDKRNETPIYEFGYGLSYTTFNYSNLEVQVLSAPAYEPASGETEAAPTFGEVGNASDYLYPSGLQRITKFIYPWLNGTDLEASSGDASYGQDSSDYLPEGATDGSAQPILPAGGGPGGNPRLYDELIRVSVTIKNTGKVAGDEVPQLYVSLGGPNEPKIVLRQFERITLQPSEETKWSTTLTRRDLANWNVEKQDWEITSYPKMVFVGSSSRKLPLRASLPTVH
Assay: BG kinetics, cellobiose hydrolysis assay (HPLC) with glucose as competitive inhibitor, yEdQ885-BG
Assay type: biochemical
Excerpt: The beta-glucosidase (BG) gene from Aspergillus niger (Accession #CAB75696.1) was integrated into the TR3 yeast background at the T4U3 genomic site.
High resolution enzyme assays and kinetic testing comparing the beta-glucosidases described herein and commercial enzyme preparations were pursued to more clearly quantify differences in mutant BG enzymes compared to the wild type BG enzyme. Based on data presented herein, BG mutant YEdQ885 was selected for further analysis and compared to the BG activity present in commercial preparations of SP188 (Novozymes) and Accellerase® BG (DuPont) as well as wild type BG.
The kinetic properties of beta glucosidase are important for cellulosic hydrolysis, since in commercial situations a wide range of substrate concentrations and different product inhibition conditions will be encountered. In this example, a Michaelis-Menten kinetics model was used to describe BG kinetics. To determine these kinetic properties, BG activity assays using standard substrates pNPG and cellobiose were employed. yEdQ745-BG (wild type) and yEdQ885-BG (improved), were compared with two commercial BGs, A-BG (Accellerase®) BG from Dupont) and S-BG (Novozymes SP188 from Sigma). […]

`OC[C@H]1OC(O)[C@H](O)[C@@H](O)[C@@H]1O` (some centres unmarked) [glucose] gave a Ki of 1110 ± 190 µM and a Km/Ki (inhibitor influence, Km for cellobiose / Ki for glucose, pH 4.8, 50° C.) of 1.31.
